Consider 30 molecules from patent US20100016343A1 (WYETH, priority 2008, published 2010).

SMILES strings stand for the structures. Read-outs that look alike come from different tables or passages of the source.

For orientation: EC50 means the midpoint of the concentration-response curve.

One data set addresses T1, rat-alpha7-nAChR (Rattus norvegicus, UniProt Q05941).
T1 construct: expressed in transfected cells
The experiment in a line: functional FLIPR assay, alpha7 nAChR stably expressed in GH4C1 cells. The data set is classed as cell-based. An excerpt:
Rat GH4C1 cells were then transfected with the rat receptor, cloned and analyzed for functional alpha7 nicotinic receptor expression employing a FLIPR assay to measure changes in intracellular calcium concentrations.
The FLIPR system allows the measurements of real time Ca^2+-concentration changes in living cells using a Ca^2+ sensitive fluorescence dye (such as Fluo4). This instrument enables the screening for agonists and antagonists for alpha 7 nAChR channels stably expressed in GH4C1 cells.
GH4C1 cells stably transfected with rat-alpha7-nAChR (see above) were used. These cells are poorly adherent and therefore pretreatment of flasks and plates with poly-D-lysine was carried out. Cells are grown in 150 cm^2 T-flasks, filled with 30 ml of medium at 37° C. and 5% CO2.
EC50 and IC50 values were calculated using the IDBS XLfit4.1 software package employing a sigmoidal concentration-response (variable slope) equation:
Y=Bottom+((Top−Bottom)/(1+((EC50/X)̂HillSlope))
Certain compounds of the present disclosure were tested using the functional FLIPR primary screening assay employing the stable recombinant GH4C1 cell line expressing the alpha7 nAChR.

A further data set deals with CYP2C9 (Homo sapiens, UniProt P11712). The experiment in a line: CYP2C9 % inhibition. It is filed as in vitro ADME.
In another data set the target is CYP3A4 (Homo sapiens, UniProt P08684). Nature of the data set: CYP3A4 % inhibition. The data set is classed as in vitro ADME.
The target in a further data set is CYP2D6 (Homo sapiens, UniProt P10635). The experiment in a line: CYP2D6 % inhibition. It is filed as in vitro ADME.
The target of data set [1] is T2, alpha3 (ganglionic) nACh receptors (Homo sapiens, UniProt P30926+P32297).
T2 construct: using the native SH-SY5Y cell line; endogenous in cells; host or cells: SH-SY5Y
The experiment in a line: calcium-monitoring FLIPR selectivity assay using the native SH-SY5Y cell line. The data set is classed as cell-based. Conditions: read-out: Alpha 3 EC50. The source says: Functional FLIPR assays were developed in order to test the selectivity of compounds against the alpha1 (muscular) and alpha3 (ganglionic) nACh receptors and the structurally related 5-HT3 receptor. […] In order to test selectivity against the 5-HT3 receptor, a recombinant cell line was constructed expressing the human 5-HT3A receptor in HEK 293 cells and a calcium-monitoring FLIPR assay employed.

Setting [2] is: GH4C1 cell line expressing the alpha7 nAChR, concentration-response curves, read-out: Alpha 7 EC50.

CYP2C9, sequence (P11712 whole entry, species assumed): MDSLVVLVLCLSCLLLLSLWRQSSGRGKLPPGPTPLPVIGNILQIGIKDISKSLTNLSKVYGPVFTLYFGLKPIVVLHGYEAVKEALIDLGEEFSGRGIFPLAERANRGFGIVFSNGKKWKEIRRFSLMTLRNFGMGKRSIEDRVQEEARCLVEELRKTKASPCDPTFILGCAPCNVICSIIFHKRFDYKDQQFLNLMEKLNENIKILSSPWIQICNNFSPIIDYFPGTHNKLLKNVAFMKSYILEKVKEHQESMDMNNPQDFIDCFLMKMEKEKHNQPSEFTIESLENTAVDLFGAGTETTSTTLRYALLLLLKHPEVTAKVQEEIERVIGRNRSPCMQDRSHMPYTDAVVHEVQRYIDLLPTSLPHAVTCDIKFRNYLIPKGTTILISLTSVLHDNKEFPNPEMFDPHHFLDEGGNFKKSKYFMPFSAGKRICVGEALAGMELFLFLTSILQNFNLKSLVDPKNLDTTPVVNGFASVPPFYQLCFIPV
T2 sequence (P32297 32-505): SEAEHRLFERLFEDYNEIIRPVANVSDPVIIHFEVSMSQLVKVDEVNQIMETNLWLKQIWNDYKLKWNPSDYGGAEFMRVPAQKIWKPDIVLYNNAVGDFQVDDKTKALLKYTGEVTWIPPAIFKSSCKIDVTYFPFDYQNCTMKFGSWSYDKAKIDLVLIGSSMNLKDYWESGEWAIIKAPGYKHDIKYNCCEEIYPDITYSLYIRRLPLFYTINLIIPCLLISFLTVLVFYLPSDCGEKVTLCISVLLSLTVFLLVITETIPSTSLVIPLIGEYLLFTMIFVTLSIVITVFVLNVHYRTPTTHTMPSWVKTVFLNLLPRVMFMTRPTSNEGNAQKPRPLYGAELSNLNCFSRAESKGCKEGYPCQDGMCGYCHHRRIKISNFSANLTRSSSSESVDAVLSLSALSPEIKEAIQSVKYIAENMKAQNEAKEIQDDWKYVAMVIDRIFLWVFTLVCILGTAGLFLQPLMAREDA
T2 sequence (P30926 22-498): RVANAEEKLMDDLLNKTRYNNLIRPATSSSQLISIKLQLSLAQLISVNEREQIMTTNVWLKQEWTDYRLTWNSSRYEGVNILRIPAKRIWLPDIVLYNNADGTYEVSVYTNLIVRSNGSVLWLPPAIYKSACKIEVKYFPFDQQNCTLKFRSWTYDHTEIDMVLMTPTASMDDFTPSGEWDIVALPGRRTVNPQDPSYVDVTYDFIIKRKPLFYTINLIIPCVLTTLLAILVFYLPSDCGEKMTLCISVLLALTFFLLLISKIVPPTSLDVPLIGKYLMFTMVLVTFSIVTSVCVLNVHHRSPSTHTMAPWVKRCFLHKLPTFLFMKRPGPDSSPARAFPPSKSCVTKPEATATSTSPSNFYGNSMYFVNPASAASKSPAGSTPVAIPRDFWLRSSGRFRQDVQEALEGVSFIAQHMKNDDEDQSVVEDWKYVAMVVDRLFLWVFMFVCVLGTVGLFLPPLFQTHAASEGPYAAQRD
CYP2D6, sequence (P10635 whole entry, species assumed): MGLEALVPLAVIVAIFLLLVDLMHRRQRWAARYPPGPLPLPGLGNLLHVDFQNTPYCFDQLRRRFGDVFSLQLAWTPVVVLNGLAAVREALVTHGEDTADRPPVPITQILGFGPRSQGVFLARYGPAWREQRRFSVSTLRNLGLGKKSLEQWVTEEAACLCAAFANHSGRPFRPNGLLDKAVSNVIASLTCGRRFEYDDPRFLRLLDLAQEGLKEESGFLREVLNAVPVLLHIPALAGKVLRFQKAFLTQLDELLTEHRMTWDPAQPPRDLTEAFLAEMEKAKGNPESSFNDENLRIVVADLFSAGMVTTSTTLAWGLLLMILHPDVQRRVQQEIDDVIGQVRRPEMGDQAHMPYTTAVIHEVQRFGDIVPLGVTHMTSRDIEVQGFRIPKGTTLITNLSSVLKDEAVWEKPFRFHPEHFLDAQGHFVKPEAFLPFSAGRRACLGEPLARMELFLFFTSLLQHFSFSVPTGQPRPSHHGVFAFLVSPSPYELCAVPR
CYP3A4, sequence (P08684 whole entry, species assumed): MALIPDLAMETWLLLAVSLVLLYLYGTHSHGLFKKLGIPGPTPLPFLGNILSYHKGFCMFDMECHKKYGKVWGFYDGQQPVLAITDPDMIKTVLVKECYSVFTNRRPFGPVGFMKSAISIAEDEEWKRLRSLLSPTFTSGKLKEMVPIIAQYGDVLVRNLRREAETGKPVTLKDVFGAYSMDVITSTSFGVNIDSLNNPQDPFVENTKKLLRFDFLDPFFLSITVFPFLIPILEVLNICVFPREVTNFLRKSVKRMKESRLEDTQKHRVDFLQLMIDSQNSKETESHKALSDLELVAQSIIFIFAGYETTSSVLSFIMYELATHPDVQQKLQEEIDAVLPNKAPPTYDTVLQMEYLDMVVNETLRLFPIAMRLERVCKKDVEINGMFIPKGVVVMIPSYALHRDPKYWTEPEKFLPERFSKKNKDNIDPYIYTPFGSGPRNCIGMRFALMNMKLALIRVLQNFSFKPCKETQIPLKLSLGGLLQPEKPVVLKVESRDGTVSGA
T1 sequence (Q05941 23-502): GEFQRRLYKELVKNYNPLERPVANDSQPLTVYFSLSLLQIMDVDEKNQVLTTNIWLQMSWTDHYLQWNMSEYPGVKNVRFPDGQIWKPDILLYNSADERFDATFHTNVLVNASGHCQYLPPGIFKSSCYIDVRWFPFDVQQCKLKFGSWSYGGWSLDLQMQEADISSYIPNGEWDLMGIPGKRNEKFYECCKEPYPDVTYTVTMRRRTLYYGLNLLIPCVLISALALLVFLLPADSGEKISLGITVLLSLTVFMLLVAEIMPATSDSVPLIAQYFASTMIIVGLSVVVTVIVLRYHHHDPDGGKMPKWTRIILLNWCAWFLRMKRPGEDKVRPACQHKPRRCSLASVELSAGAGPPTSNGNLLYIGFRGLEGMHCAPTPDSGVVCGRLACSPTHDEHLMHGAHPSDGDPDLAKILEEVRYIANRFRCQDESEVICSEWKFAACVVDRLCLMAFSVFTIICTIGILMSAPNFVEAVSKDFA

With `Cn1cc(-c2ccc(NC(=O)NCCCCN3CCCCC3)cn2)cn1`, the EC50 was 450 nM at rat-alpha7-nAChR (setting [2]) and above 30000 nM in data set [1]. Besides, on CYP2C9, the CYP2C9 % inhibition came to 3%. The CYP3A4 % inhibition on CYP3A4 is −4%. The molecule also registered a CYP2D6 % inhibition at CYP2D6 of 1%.
In the same order, the values of `Cn1cc(-c2ccc(NC(=O)NCCCCN3CCCCC3)cc2)cn1` are 130 nM, 5040 nM, 9%, 68% and 45%.
In the case of `O=C(NCCCCN1CCCCC1)Nc1ccc(-c2ccccc2F)nc1`, the results for the EC50 (on rat-alpha7-nAChR (setting [2]); in data set [1]) were 200 nM and 5550 nM, respectively. Besides, the CYP2C9 % inhibition on CYP2C9 is given as −10%. In addition, at CYP3A4, the CYP3A4 % inhibition is −3%. This molecule also had a CYP2D6 % inhibition on CYP2D6 of 14%.
In the same order, the values of `O=C(NCCCCN1CCCCC1)Nc1ccc(-c2ccccc2F)cc1` are 190 nM, 1500 nM, −1%, −17% and 75%.
For the molecule `COc1ccc(F)c(-c2ccc(NC(=O)NCCCCN3CCCCC3)cn2)c1`, the EC50 on rat-alpha7-nAChR (setting [2]) worked out at 80 nM; in data set [1] it was 4340 nM. Moreover, on CYP2C9, the CYP2C9 % inhibition is 10%. The CYP3A4 % inhibition at CYP3A4 stood at 43%. Besides, the CYP2D6 % inhibition on CYP2D6 stood at 18%.
With `COc1ccc(F)c(-c2ccc(NC(=O)NCCCCN3CCCCC3)cc2)c1`, the half-maximal effective concentration (EC50) on rat-alpha7-nAChR (setting [2]) came to 100 nM; in data set [1], 2320 nM. Further, the CYP2C9 % inhibition on CYP2C9 is −26%. Further, at CYP3A4, the CYP3A4 % inhibition was determined as 51%. Further, at CYP2D6, the CYP2D6 % inhibition amounted to 83%.
In the case of `COc1ccccc1-c1ccc(NC(=O)NCCCCN2CCCCC2)cn1`, the EC50 came out at 260 nM at rat-alpha7-nAChR (setting [2]) and 3860 nM in data set [1]. Further, the CYP2C9 % inhibition on CYP2C9 worked out at 6%. For the same molecule, the CYP3A4 % inhibition at CYP3A4 was determined as 8%. Also, the CYP2D6 % inhibition on CYP2D6 was determined as 8%.
As for `COc1ccccc1-c1ccc(NC(=O)NCCCCN2CCCCC2)cc1`, the half-maximal effective concentration (EC50) on rat-alpha7-nAChR (setting [2]) is 170 nM; in data set [1] it was 1080 nM. Moreover, at CYP2C9, the CYP2C9 % inhibition was −2%. At CYP3A4, the CYP3A4 % inhibition stood at 5%. On CYP2D6, this molecule yielded a CYP2D6 % inhibition of 38%.
In the same order, the values of `O=C(NCCCCN1CCCCC1)Nc1ccc(-c2cccs2)nc1` are 100 nM, 8430 nM, 2%, 2% and 7%.
In the same order, the values of `O=C(NCCCCN1CCCCC1)Nc1ccc(-c2cccs2)cc1` are 190 nM, 3560 nM, −5%, 24% and 69%.
As to `O=C(NCCCCN1CCCCC1)Nc1ccc(-c2cccc(F)c2)nc1`, the 50% effective concentration (EC50) at rat-alpha7-nAChR (setting [2]) came to 180 nM. In addition, the CYP2C9 % inhibition at CYP2C9 is recorded as 0%. Besides, the CYP3A4 % inhibition on CYP3A4 came out at 26%. The molecule further came in with a CYP2D6 % inhibition at CYP2D6 of 10%.
`O=C(NCCCCN1CCCCC1)Nc1ccc(-c2cccc(F)c2)cc1`: the EC50 at rat-alpha7-nAChR (setting [2]) was determined as 110 nM; in data set [1] it was 1780 nM. The CYP2C9 % inhibition on CYP2C9 is on record as −12%. In addition, at CYP3A4, the CYP3A4 % inhibition is given as −21%. At CYP2D6, the CYP2D6 % inhibition came out at 62%.
Regarding `O=C(NCCCCN1CCCCC1)Nc1ccc(-c2cccnc2)nc1`, the EC50 at rat-alpha7-nAChR (setting [2]) was 590 nM; in data set [1], 9880 nM. Also, at CYP2C9, the CYP2C9 % inhibition is given as −3%. Besides, on CYP3A4, the CYP3A4 % inhibition is listed as 0%. This molecule also had a CYP2D6 % inhibition at CYP2D6 of 22%.
In the same order, the values of `O=C(NCCCCN1CCCCC1)Nc1ccc(-c2cccnc2)cc1` are 100 nM, 3610 nM, −22%, 2% and 72%.
Turning to `O=C(NCCCCN1CCCCC1)Nc1ccc(-c2ccc(F)cc2)nc1`, the EC50 in data set [1] turned out to be 9530 nM.
On to `O=C(NCCCCN1CCCCC1)Nc1ccc(-c2ccc(F)cc2)cc1`, for which the EC50 at rat-alpha7-nAChR (setting [2]) stood at 220 nM; in data set [1] it was 1730 nM. Besides, the CYP2C9 % inhibition on CYP2C9 is on record as −16%. Moreover, at CYP3A4, the CYP3A4 % inhibition was −13%. Also, the CYP2D6 % inhibition at CYP2D6 stood at 65%.
`O=C(NCCCC[N+]1([O-])CCCCC1)Nc1ccc(-c2ccc(F)cc2)nc1`: the concentration giving a half-maximal response (EC50) at rat-alpha7-nAChR (setting [2]) was 460 nM; in data set [1], 9800 nM.
As for `O=C(NCCCCN1CCCCC1)Nc1ccc(-c2ccc(F)nc2)nc1`, the EC50 at rat-alpha7-nAChR (setting [2]) was found to be 720 nM. Besides, the CYP2C9 % inhibition at CYP2C9 is given as −10%. The CYP3A4 % inhibition at CYP3A4 is reported as −19%. The CYP2D6 % inhibition on CYP2D6 worked out at 8%.
As to `O=C(NCCCCN1CCCCC1)Nc1ccc(-c2ccc(F)nc2)cc1`, the figures for the EC50 (at rat-alpha7-nAChR (setting [2]); in data set [1]) were 130 nM and 1210 nM, respectively. Also, on CYP2C9, the CYP2C9 % inhibition is recorded as −18%. On CYP3A4, the CYP3A4 % inhibition is recorded as −22%. The CYP2D6 % inhibition on CYP2D6 turned out to be 21%.
In the case of `COc1ccc(-c2ccc(NC(=O)NCCCCN3CCCCC3)cn2)cc1`, the EC50 on rat-alpha7-nAChR (setting [2]) stood at 260 nM; in data set [1], 4120 nM. Moreover, on CYP2C9, the CYP2C9 % inhibition was −15%. Further, the CYP3A4 % inhibition on CYP3A4 is −8%. The molecule also had a CYP2D6 % inhibition at CYP2D6 of 54%.
In the same order, the values of `COc1ccc(-c2ccc(NC(=O)NCCCCN3CCCCC3)cc2)cc1` are 220 nM, 1770 nM, −14%, 32% and 97%.
Turning to `O=C(NCCCCN1CCCCC1)Nc1ccc(-c2ccc3c(c2)OCO3)nc1`, on rat-alpha7-nAChR (setting [2]), the half-maximal effective concentration (EC50) is 140 nM. Further, the CYP2C9 % inhibition at CYP2C9 is on record as 6%. In addition, the CYP3A4 % inhibition at CYP3A4 stood at 65%. Besides, the CYP2D6 % inhibition on CYP2D6 is reported as 79%.
In the case of `O=C(NCCCCN1CCCCC1)Nc1ccc(-c2ccc3c(c2)OCO3)cc1`, the EC50 at rat-alpha7-nAChR (setting [2]) was found to be 100 nM; in data set [1] it was 1720 nM. In addition, the CYP2C9 % inhibition on CYP2C9 worked out at 0%. For the same molecule, the CYP3A4 % inhibition on CYP3A4 is 74%. This molecule also had a CYP2D6 % inhibition on CYP2D6 of 97%.
Turning to `O=C(NCCCCN1CCCCC1)Nc1ccc(-c2ccncc2)nc1`, the EC50 at rat-alpha7-nAChR (setting [2]) came out at 400 nM. The CYP2C9 % inhibition at CYP2C9 is 1%. In addition, the CYP3A4 % inhibition on CYP3A4 is listed as −1%. The molecule further came in with a CYP2D6 % inhibition on CYP2D6 of 12%.
`O=C(NCCCCN1CCCCC1)Nc1ccc(-c2ccncc2)cc1`: the EC50 at rat-alpha7-nAChR (setting [2]) was 180 nM; in data set [1], 2950 nM. Also, the CYP2C9 % inhibition on CYP2C9 is on record as 6%. On CYP3A4, the CYP3A4 % inhibition worked out at 17%. Also, the CYP2D6 % inhibition at CYP2D6 is recorded as 48%.
In the same order, the values of `O=C(NCCCCN1CCCCC1)Nc1ccc(-c2ccccc2)nc1` are 90 nM, 10100 nM, −4%, −21% and 6%.
`O=C(NCCCCN1CCCCC1)Nc1ccc(-c2ccccc2)cc1`: the concentration giving a half-maximal response (EC50) on rat-alpha7-nAChR (setting [2]) amounted to 310 nM; in data set [1], 2840 nM. Moreover, at CYP2C9, the CYP2C9 % inhibition amounted to 2%. Besides, at CYP3A4, the CYP3A4 % inhibition is given as 51%. Further, on CYP2D6, the CYP2D6 % inhibition was determined as 64%.
For `C[N+]1(C)CCN(c2ccccc2)CC1` [DMPP, reference compound], at rat-alpha7-nAChR (assay validation with agonists, alpha7 nAChR in GH4C1 cells, concentration range 0.001 to 30 microM, read-out: EC50), the EC50 is 980 ± 470 nM.
In the case of `COc1ncccc1-c1ccc(NC(=O)NCCCCN2CCCCC2)cn1` [drawing 62], the CYP2C9 % inhibition at CYP2C9 is −12%. Besides, the CYP3A4 % inhibition on CYP3A4 is reported as −4%. In addition, the CYP2D6 % inhibition at CYP2D6 came to 8%. Moreover, the EC50 in data set [1] is 15700 nM.
Take `COc1ncccc1-c1ccc(NC(=O)NCCCCN2CCCCC2)cn1` [drawing 63]: the CYP2C9 % inhibition at CYP2C9 was −36%. Also, the CYP3A4 % inhibition on CYP3A4 is given as −21%. The CYP2D6 % inhibition on CYP2D6 is listed as 8%. Also, in data set [1], the EC50 was 5670 nM.
